Tests used:
Experiment in all cases: Test B pre-/postemergence plant response
Type in all cases: in vivo
[1] = test system: morningglory (Ipomoea coccinea)
Excerpt: (§1) Seeds of plant species selected from blackgrass (Alopecurus myosuroides), downy bromegrass (Bromus tectorum), green foxtail (Setaria viridis), Italian ryegrass (Lolium multiflorum), wheat (Triticum aestivum), wild oat (Avena fatua), catchweed bedstraw (Galium aparine), bermudagrass (Cynodon dactylon), surinam grass (Brachiaria decumbens), cocklebur (Xanthium strumarium), corn (Zea mays), large crabgrass (Digitaria sanguinalis), woolly cupgrass (Eriochloa villosa), giant foxtail (Setaria faberii), goosegrass (Eleusine indica), johnsongrass (Sorghum halepense), kochia (Kochia scoparia), lambsquarters (Chenopodium album), morningglory (Ipomoea coccinea), eastern black (E.B.) nightshade (Solanum ptycanthum), yellow nutsedge (Cyperus esculentus), pigweed (Amaranthus retroflexus), common ragweed (Ambrosia elation), Russian thistle (Salsola iberica), soybean (Glycine max), common (oilseed) sunflower (Helianthus annuus), and velvetleaf (Abutilon theophrasti) were planted and treated preemergence with test chemicals formulated in a non-phytotoxic solvent mixture which included a surfactant.
(§2) At the same time, plants selected from these crop and weed species and also winter barley (Hordeum vulgare), canarygrass (Phalaris minor), chickweed (Stellaria media) and windgrass (Apera spica-venti) were treated with postemergence applications of some of the test chemicals formulated in the same manner. Plants ranged in height from 2 to 18 cm (1- to 4-leaf stage) for postemergence treatments.
(§3) Plant species in the flooded paddy test consisted of rice (Oryza sativa), umbrella sedge (Cyperus difformis), ducksalad (Heteranthera limosa) and barnyardgrass (Echinochloa crus-galli) grown to the 2-leaf stage for testing. At time of treatment, test pots were flooded to 3 cm above the soil surface, treated by application of test compounds directly to the paddy water, and then maintained at that water depth for the duration of the test. Treated plants and controls were maintained in a greenhouse for 13 to 15 days, after which time all species were compared to controls and visually evaluated. Plant response ratings, summarized in Table B, are based on a scale of 0 to 100 where 0 is no effect and 100 is complete control. A dash (-) response means no test result.

[2] = test system: giant foxtail (Setaria faberii)
Excerpt: as §1, §2, §3

[3] = test system: pigweed (Amaranthus retroflexus)
Excerpt: as §1, §2, §3

[4] = test system: velvetleaf (Abutilon theophrasti)
Excerpt: as §1, §2, §3

[5] = test system: johnsongrass (Sorghum halepense)
Excerpt: as §1, §2, §3

[6] = test system: blackgrass (Alopecurus myosuroides)
Excerpt: as §1, §2, §3

[7] = test system: yellow nutsedge (Cyperus esculentus)
Excerpt: as §1, §2, §3

[8] = test system: green foxtail (Setaria viridis)
Excerpt: as §1, §2, §3

[9] = test system: Italian ryegrass (Lolium multiflorum)
Excerpt: as §1, §2, §3

wild oat (Avena fatua) = test system: wild oat (Avena fatua)
Excerpt: as §1, §2, §3

[10] = test system: downy bromegrass (Bromus tectorum)
Excerpt: as §1, §2, §3

[11] = test system: eastern black (E.B.) nightshade (Solanum ptycanthum); conditions: Preemergence
Excerpt: as §1, §2, §3

[12] = test system: woolly cupgrass (Eriochloa villosa)
Excerpt: as §1, §2, §3

[13] = test system: catchweed bedstraw (Galium aparine); conditions: Preemergence
Excerpt: as §1, §2, §3

[14] = 8 g ai/ha, postemergence, 0-100 scale
[15] = 16 g ai/ha, postemergence, 0-100 scale
[16] = Postemergence, 31 g ai/ha, scale 0 to 100
[17] = Postemergence, 62 g ai/ha, scale 0 to 100, 0 no effect, 100 complete control
[18] = Preemergence, 8 g ai/ha, scale 0 to 100 (0 no effect, 100 complete control)
[19] = Preemergence, 31 g ai/ha, scale 0 to 100 (0 no effect, 100 complete control)
[20] = Preemergence, 62 g ai/ha, 0 to 100 scale, 0 no effect, 100 complete control
[21] = Preemergence, 16 g ai/ha, scale 0 to 100
[22] = 8 g ai/ha, scale 0 to 100 (0 no effect, 100 complete control)
[23] = 31 g ai/ha, scale 0 to 100 (0 no effect, 100 complete control)
[24] = 62 g ai/ha, 0 to 100 scale, 0 no effect, 100 complete control

CCc1c(C)c(-c2ccc(Br)cc2)nn1-c1c(O)cnn(C)c1=O [Compound 83]
98: Plant response rating, Johnsongrass [5, 16] | Plant response rating, Johnsongrass [5, 20] | Plant response rating, Blackgrass [6, 20] | Plant response rating, Foxtail, Green [8, 16] | Ryegrass, Italian plant response rating [9, 15] | Oat, Wild plant response rating (wild oat (Avena fatua); [14]) | Plant response rating, Cupgrass, Woolly [12, 16]
75: Plant response rating, Bromegrass, Downy [10, 16]
60: Foxtail, Green plant response rating [8, 14]
0: Morningglory plant response rating [1, 14] | Morningglory plant response rating [1, 15] | Plant response rating, Morningglory [1, 16] | Plant response rating, Morningglory [1, 17] | Morningglory plant response rating [1, 18] | Plant response rating, Morningglory [1, 19] | Plant response rating, Morningglory [1, 20] | Morningglory plant response rating [1, 21] | Pigweed plant response rating [3, 14] | Pigweed plant response rating [3, 15] | Plant response rating, Pigweed [3, 16] | Pigweed plant response rating [3, 18] | Plant response rating, Pigweed [3, 19] | Plant response rating, Pigweed [3, 20] | Pigweed plant response rating [3, 21] | Velvetleaf plant response rating [4, 14] | Velvetleaf plant response rating [4, 15] | Plant response rating, Velvetleaf [4, 16] | Velvetleaf plant response rating [4, 18] | Plant response rating, Velvetleaf [4, 19] | Plant response rating, Velvetleaf [4, 20] | Velvetleaf plant response rating [4, 21] | Blackgrass plant response rating [6, 18] | Nutsedge, Yellow plant response rating [7, 14] | Nutsedge, Yellow plant response rating [7, 15] | Plant response rating, Nutsedge, Yellow [7, 16] | Plant response rating, Nutsedge, Yellow [7, 17] | Nutsedge, Yellow plant response rating [7, 18] | Plant response rating, Nutsedge, Yellow [7, 19] | Plant response rating, Nutsedge, Yellow [7, 20] | Nutsedge, Yellow plant response rating [7, 21] | Oat, Wild plant response rating (wild oat (Avena fatua); [18]) | Bromegrass, Downy plant response rating [10, 18] | Bromegrass, Downy plant response rating [10, 21] | Nightshade, E. B. plant response rating [11, 22] | Plant response rating, Nightshade, E. B. [11, 23] | Plant response rating, Nightshade, E. B. [11, 24] | Nightshade, E. B. plant response rating ([11]; 16 g ai/ha, scale 0 to 100) | Galium plant response rating [13, 22] | Plant response rating, Galium [13, 23] | Plant response rating, Galium [13, 24] | Galium plant response rating ([13]; 16 g ai/ha, scale 0 to 100)
65: Johnsongrass plant response rating [5, 14] | Foxtail, Green plant response rating [8, 15] | Cupgrass, Woolly plant response rating [12, 14] | Cupgrass, Woolly plant response rating [12, 18]
55: Johnsongrass plant response rating [5, 18] | Bromegrass, Downy plant response rating [10, 15]
85: Johnsongrass plant response rating [5, 21] | Ryegrass, Italian plant response rating [9, 14] | Ryegrass, Italian plant response rating [9, 21] | Plant response rating, Oat, Wild (wild oat (Avena fatua); [20]) | Plant response rating, Bromegrass, Downy [10, 17]
100: Plant response rating, Foxtail, Giant [2, 16] | Plant response rating, Foxtail, Giant [2, 17] | Plant response rating, Foxtail, Giant [2, 19] | Plant response rating, Foxtail, Giant [2, 20] | Foxtail, Giant plant response rating [2, 21] | Plant response rating, Johnsongrass [5, 17] | Plant response rating, Blackgrass [6, 17] | Plant response rating, Foxtail, Green [8, 17] | Plant response rating, Foxtail, Green [8, 20] | Plant response rating, Ryegrass, Italian [9, 16] | Plant response rating, Ryegrass, Italian [9, 17] | Plant response rating, Ryegrass, Italian [9, 19] | Plant response rating, Ryegrass, Italian [9, 20] | Oat, Wild plant response rating (wild oat (Avena fatua); [15]) | Plant response rating, Oat, Wild (wild oat (Avena fatua); [16]) | Plant response rating, Oat, Wild (wild oat (Avena fatua); [17]) | Plant response rating, Cupgrass, Woolly [12, 17] | Plant response rating, Cupgrass, Woolly [12, 19] | Plant response rating, Cupgrass, Woolly [12, 20]
10: Bromegrass, Downy plant response rating [10, 14]
90: Foxtail, Giant plant response rating [2, 15] | Cupgrass, Woolly plant response rating [12, 21]
20: Plant response rating, Pigweed [3, 17] | Plant response rating, Velvetleaf [4, 17] | Plant response rating, Bromegrass, Downy [10, 19]
80: Foxtail, Giant plant response rating [2, 14] | Foxtail, Giant plant response rating [2, 18] | Plant response rating, Blackgrass [6, 19] | Plant response rating, Foxtail, Green [8, 19] | Plant response rating, Oat, Wild (wild oat (Avena fatua); [19])
70: Johnsongrass plant response rating [5, 15] | Blackgrass plant response rating [6, 14] | Foxtail, Green plant response rating [8, 21]
30: Blackgrass plant response rating [6, 21] | Ryegrass, Italian plant response rating [9, 18] | Oat, Wild plant response rating (wild oat (Avena fatua); [21]) | Plant response rating, Bromegrass, Downy [10, 20]
95: Plant response rating, Johnsongrass [5, 19] | Blackgrass plant response rating [6, 15] | Plant response rating, Blackgrass [6, 16] | Cupgrass, Woolly plant response rating [12, 15]
40: Foxtail, Green plant response rating [8, 18]
